Where a name gives a salt, the structure may show the parent alone. Starred links: 1 amine or outer side, 2 acyl side, 3 side chain; linkers in the order of their positions; H or OH if unused. Non-standard residues stand in square brackets, D forms with d. Residues, ends and D or L forms follow the SMILES beside them. *: point of attachment. Dolaproine = CO[C@@H]([C@@H]1CCCN1)[C@@H](C)C(=O)O; X1 = O=C([C@]1(N[*:1])C[C@@H]1c1ccccc1)[*:2]; Dil = CC[C@H](C)[C@H](NC)[C@@H](CC(=O)O)OC; Oxazinan2yl(1,2) = C1CCN(*)OC1; NMeV = CN[C@H](C(=O)O)C(C)C
What was measured:
[1] = test system: human colon carcinoma cell line HT29 wt (wild type); test: Antiproliferative effect on the HT29 wt cell line (MTT assay); type: cell-based; conditions: Homo sapiens, HT-29, HT29 wt cells, 10% FCS, incubation 48 h to 96 h
Procedure: B-2. Determination of the Antiproliferative Effect on the HT29 Wt Cell Line:
A defined cell number of the human colon carcinoma cell line HT29 wt (wild type) was sown in a 96-well microtiter plate in complete medium (10% FCS-RPMI) (2500 cells/well) and incubated at 37° C./5% CO2 overnight. After 18 h, the sowing medium was replaced by fresh medium with 10% FCS. Treatment was initiated by addition of the respective test substance. From the substances to be investigated, dose/activity curves in a concentration range of from 10^−5 M to 10^−14 M (1:10-dilution series) were determined. The chosen incubation times were from 48 h to 96 h. Pro-liferation was determined with the aid of the MTT assays (ATCC, Manassas, Va., USA, catalogue No. 30-1010K). After the incubation time, the MTT reagent was incubated with the cells for 4 h, and the cells were subsequently lysed by adding the detergent overnight. The dye formed was detected at 570 nm. Proliferation of cells which had not been treated with test substance, but had otherwise been treated identically, was defined as 100%. The data obtained from this test are triple determinations, and at least two independent experiments were carried out.

[2] = Plasma stability in vitro, rat plasma; type: in vitro ADME; conditions: 37° C.
Procedure: (§1) B-4. Determination of the Plasma Stability in vitro:
(§2) 1 mg of the test substance in question was dissolved in 0.5 ml of acetonitrile/DMSO (9:1). From this solution, 20 μl were removed and added to 1 ml of rat or human plasma at 37° C. (plasma of male Wistar rats with Li heparin from Harlan & Winkelmann or fresh human leukocyte-depleted plasma originating from a whole blood sample). From this plasma solution, which was shaken vigorously, 100 μl aliquots were removed immediately after addition of the sample (initial value as reference) and then after 5, 10, 30, 60, 120, 180 and 240 minutes and optionally after 24 hours and added to 300 μl of acetonitrile. The precipitated plasma proteins were removed by centrifugation at 5000 rpm for 10 minutes, and 30 μl of the supernatant were analysed by HPLC for its content of unmodified test substance. Quantification was via the area percentages of the corresponding peaks.
HPLC Method for Rat Plasma:
Instrument: Agilent 1200 with DAD, binary pump, autosampler, column oven and thermostat; column: Kromasil 100 C18, 250 mm×4 mm, […]; column temperature: 45° C.; mobile phase A: 5 ml of perchloric acid/1 of water, mobile phase B: acetonitrile; gradient: 0-8 min 98% A, 2% B; 8-15 min 56% A, 44% B; […] 10% A, 90% B; 20-21 min 10% A, 90% B; […] 98% A, 2% B; […] 98% A, 2% B; flow rate: 2 ml/min; UV detection: 220 nm.
(§3) The test substance was incubated in rat or human plasma at 37° C. over a period of 5 h with gentle stirring. At different points in time (0, 2, 5, 10, 20, 30, 60, 120, 180 and 300 minutes), a 100 μl aliquot was removed. Following addition of internal standard (10 μl), the proteins were precipitated by addition of 200 μl of acetonitrile and the mixture was centrifuged in an Eppendorf centrifuge for 5 minutes. After addition of 150 μl of ammonium acetate buffer pH 3 to 150 μl of the supernatant, the content of unmodified test substance was analysed by LC/MSMS.

[3] = Plasma stability in vitro, human plasma; type: in vitro ADME
Procedure: as §1, §2
HPLC Method for Human Plasma:
Instrument: Agilent 1100 with DAD, binary pump, autosampler, column oven and thermostat;
column: Kromasil 100 C18, 250 mm×4 mm, 5 μm; column temperature: 45° C.; mobile phase A: 5 ml of perchloric acid/1 of water, mobile phase B: acetonitrile; gradient: 0-3 min 98% A, 2% B; 3-10 min 65% A, 35% B; 10-15 min 40% A, 60% B; 15-21 min 10% A, 90% B; 21-22 min 10% A, 90% B; 22-24 min 98% A, 2% B; 24-26 min 98% A, 2% B; flow rate: 2 ml/min; UV detection: 220 nm.
as §3

[4] = test system: human renal cancer cell line 786-0; test: Antiproliferative effect on the 786-0 RCC cell line (MTT assay); type: cell-based; conditions: Homo sapiens, 786-0, 786-0 cells, incubation 48 h to 96 h
Procedure: B-1. Determination of the Antiproliferative Effect on the 786-0 RCC Cell Line:
A defined cell number of the human renal cancer cell line 786-0 was sown in a 96-well microtiter plate in complete medium (2500 or 7000 cells/well) and incubated at 37° C./5% CO2 overnight. After 18 h, the sowing medium was replaced by serum-free medium or medium with 2% FCS. Treatment was initiated by addition of the respective test substance in varying concentration (10^−5 M to […]). The chosen incubation times were from 48 h to 96 h. Proliferation was determined with the aid of the MTT assays (ATCC, Manassas, Va., USA, catalogue No. 30-1010K). After the incubation time, the MTT reagent was incubated with the cells for 4 h, and the cells were subsequently lysed by adding the detergent overnight. The dye formed was detected at 570 nm. […] The data obtained from this test are triple determinations, and at least two independent experiments were carried out.

| Compound | IC50 [1] [nM] | half-life at 39.2 µg/ml ([2]; male, Wistar, rat plasma (Li heparin), Method A (HPLC)) [h] | degradation in human plasma after 24 h [3] | IC50 [4] [nM] | t1/2 ([2]; Method A) [min] | degraded in human plasma during 24 h [3] |
| --- | --- | --- | --- | --- | --- | --- |
| CC[C@H](C)[C@@H]([C@@H](CC(=O)N1CCC[C@H]1[C@H](OC)[C@@H](C)C(=O)N[C@@]1(C(=O)N2CCCCO2)C[C@@H]1c1ccccc1)OC)N(C)C(=O)[C@@H](NC(=O)[C@@H](NC)C(C)C)C(C)C [Example 17, N-Methyl-L-valyl-N-[(3R,4S,5S)-3-methoxy-1-{(2S)-2-[(1R,2R)-1-methoxy-2-methyl-3-{[(1S,2R)-1-(1,2-oxazinan-2-ylcarbonyl)-2-phenylcyclopropyl]amino}-3-oxopropyl]pyrrolidin-1-yl}-5-methyl-1-oxoheptan-4-yl]-N-methyl-L-valinamide, trifluoroacetic acid salt] (H-[NMeV]V[Dil][Dolaproine][X1]-{Oxazinan2yl(1,2)}) | 0.5 | > 24 | no degradation was observed | 4 | – | – |
| CC[C@H](C)[C@@H]([C@@H](CC(=O)N1CCC[C@H]1[C@H](OC)[C@@H](C)C(=O)N[C@@H](Cc1ccccc1)C(=O)OC)OC)N(C)C(=O)[C@@H](NC(=O)[C@@H](NC)C(C)C)C(C)C [MMAF-OMe, Monomethylauristatin F methyl ester, reference compound] (H-[NMeV]V[Dil][Dolaproine]F-OMe) | – | – | – | – | < 1 | about 20% |

— patent publication US8722629B2, “Auristatin derivatives and use thereof” (Seattle Genetics, Inc., priority 2010, dated 2014)
